Measurements as given in publication PMC10254235, “Design, Synthesis, and Anti-Cervical Cancer and Reversal of Tumor Multidrug Resistance Activity of Novel Nitrogen-Containing Heterocyclic Chalcone Derivatives” (Molecules, 2023).
Like-named read-outs stand apart in the source and are kept apart here.

Columns and labels:
Assay type in all cases: cell-based, human
HeLa cells [1] = assay: MTT antiproliferative assay, HeLa cells; details: Homo sapiens, 48 h
Protocol: (§1) HeLa and SiHa cell lines were obtained from the Procell Life Science Technology Co., Ltd. (Wuhan, China); H8 cell line was obtained from the Shanghai HonSun Biological Technology Co., Ltd. (Shanghai, China); HUVEC cell line was obtained from the Saibaikang (Shanghai) Biotechnology Co., Ltd. (Shanghai, China); HeLa/DDP cell line was obtained from the Guangzhou Jenniobio Biotechnology Co., Ltd. (Guangzhou, China). HeLa, SiHa, H8, and HeLa/DDP cells were cultured in DMEM medium (HyClone). The VEGF of 50 ng/mL was used as the promoter of the VEGFR-2 receptor on HUVEC cell membrane surfaces, and their inhibitory effects on VEGFR-2 were determined. All the mediums were supplemented with 10% FBS (HyClone, GE Healthcare, Australia). Cells were maintained at subconfluency at 37 °C in humidified air containing 5% CO2. The cells were monitored daily and maintained at 80% cell density. All compounds tested were dissolved in DMSO and then diluted by the culture medium before the treatment of cultured cells. Identification reports are available for all types of cell lines involved in this study.
(§2) The cytotoxicity of the target compounds were measured in vitro using the MTT assay. Cells grown in the logarithmic phase were counted and seeded in 96-well cell culture plates (5 × 10^3 cells per well) for 24 h to allow attachment of cells to the wall of the plate. […] Next, 20 μL of 5 mg.mL^−1 MTT solution was added to each well and cultured for 4 h. The old solution was discarded, replaced with 150 μL DMSO solution per well, and shaken for 10 min. The OD value was measured under 490 nm, and the inhibition rate was calculated. The nonlinear regression fitting of the cell growth rate was carried out using SPSS 23.0 software, and the IC50 of the compound was calculated. […] There were 6 compound holes in each group, and the experimental results were presented as the average of 3 experiments. A complete medium containing only cells was used as the blank control, whereas a complete medium without cells was the negative control group. Cisplatin and sorafenib were utilized as the positive control group, and the target compound was the experimental intervention group.

SiHa cells = assay: MTT antiproliferative assay, SiHa cells; details: Homo sapiens, 48 h, mean ± SD
Protocol: as §1, §2

H8 cells = assay: MTT cytotoxicity assay, normal cervical epithelial H8 cells; details: Homo sapiens, 48 h, mean ± SD
Protocol: as §1, §2

HeLa/DDP cells = assay: MTT assay, cisplatin-resistant HeLa/DDP cells
Protocol: The cytotoxicity of the target compounds were measured in vitro using the MTT assay. Cells grown in the logarithmic phase were counted and seeded in 96-well cell culture plates (5 × 10^3 cells per well) for 24 h to allow attachment of cells to the wall of the plate. […] Next, 20 μL of 5 mg.mL^−1 MTT solution was added to each well and cultured for 4 h. The old solution was discarded, replaced with 150 μL DMSO solution per well, and shaken for 10 min. The OD value was measured under 490 nm, and the inhibition rate was calculated. The nonlinear regression fitting of the cell growth rate was carried out using SPSS 23.0 software, and the IC50 of the compound was calculated. […] A complete medium containing only cells was used as the blank control, whereas a complete medium without cells was the negative control group.

HeLa cells [2] = assay: Apoptosis analysis, Annexin V-FITC/PI flow cytometry; details: 24 h
Protocol: After incubation, cells were harvested and incubated using […] of Annexin-V/FITC (BD, America) in binding buffer (10 mM HEPES, 140 mM NaCl, and 2.5 mM CaCl2 at pH 7.4) at room temperature for 15 min. The PI solution was then added to the medium for another 10 min incubation. Almost 10,000 events were collected for each sample and analyzed using flow cytometry (BD, LSRFortessa, New York, NY, USA). The procedure for the remaining Western blot was the same as in Section 3.3.3.

HeLa cells [3] = assay: Transwell migration assay; details: 24 h, control 1205
Protocol: Initially, HeLa (5 × 10^4 cells) were suspended in 200 μL of an FBS-free medium. […] The lower chamber was filled with 600 μL of medium containing 10% FBS. After incubating at 37 °C for 24 h, the cells on the top side of the transwell membrane were removed with a cotton tip. The cells trapped on the bottom side of the membrane were fixed using methanol and stained using 0.1% crystal violet solution for 30 min, respectively.

p-VEGFR-2 (Y1175) = assay: Western blot, p-VEGFR-2 in HeLa cells; details: HeLa, 2, 4 and 6 μM, 24 h
Protocol: (§3) Next, the protein concentrations were determined using a BCA Protein Assay Kit (Solarbio, China). An equal amount of the proteins (12 μg) were separated using 8–12% sodium dodecyl sulfate–polyacrylamide gel electrophoresis (SDS-PAGE) and transferred to nitrocellulose membranes (Amersham Biosciences, Little Chalfont, Buckinghamshire, UK). Then, the membranes were blocked with 5% nonfat dried milk in TBS containing 1% Tween-20 for 2 h at room temperature and were incubated overnight with specific primary antibodies (CST, Boston, MA, USA) at 4 °C. After three washes in TBST, the membranes were incubated with the appropriate HRP-conjugated secondary antibodies at room temperature for 2 h. The blots were developed using enhanced chemiluminescence (Biosharp, Shanghai, China) and were detected using a PE 0723 imager (ProteinSimple, Silicon Valley, CA, USA). Each experiment was performed at least in triplicate and analyzed using Image J software (V1.8.0.112). […]

p-AKT (Ser473) = assay: Western blot, p-AKT in HeLa cells; details: HeLa, 2, 4 and 6 μM, 24 h
Protocol: as §3

Bcl-2 = assay: Western blot, Bcl-2 in HeLa cells; details: HeLa, 2, 4 and 6 μM, 24 h, versus control, p < 0.05
Protocol: as §3
After incubation, cells were harvested and incubated using […] of Annexin-V/FITC (BD, America) in binding buffer (10 mM HEPES, 140 mM NaCl, and 2.5 mM CaCl2 at pH 7.4) at room temperature for 15 min. […] Almost 10,000 events were collected for each sample and analyzed using flow cytometry (BD, LSRFortessa, New York, NY, USA). […]

P-gp = assay: Western blot, P-gp expression in HeLa/DDP cells; details: 0.25, 0.5 and 1 μM, p > 0.05
Protocol: as §3
(§4) To reduce the adverse reactions caused by the fixation of drug resistance reversal agents, the concentration that reduces the proliferation rate of tumor cells by less than 10% was selected. Therefore, the inhibitory activity of compound 6f on HeLa/DDP cells was determined in the concentration ranges of 0.25, 0.5, and 1 μM combined with cisplatin. […]

p-VEGFR-2 = assay: Western blot, VEGFR-2 phosphorylation in HeLa/DDP cells; details: 4 and 6 μM, versus blank group, p < 0.05
Protocol: as §3, §4

## COc1cc(O)c(C(=O)/C=C/c2ccc(CN3CCC(C)CC3)cc2)cc1CN1CCC(O)CC1 [6f, (E)-1-(2-hydroxy-5-((4-hydroxypiperidin-1-yl)methyl)-4-methoxyphenyl)-3-(4-((4-methylpiperidin-1-yl)methyl)phenyl)prop-2-en-1-one]
HeLa cells [1]; MTT, mean ± SD, read-out: 48h IC50 HeLa
  IC50: 6.52 ± 0.42 µM
HeLa cells [1]; single agent, read-out: 48h IC50 HeLa (Table 4)
  IC50: 6.52 ± 0.42 µM
SiHa cells
  IC50: 7.88 ± 0.52 µM
H8 cells
  IC50: 30.1 ± 2.51 µM
HeLa/DDP cells; 6f alone at 0.25, 0.5 and 1 μM
  inhibitory rate on HeLa/DDP cell line: less than 10%
HeLa/DDP cells; HeLa/DDP versus HeLa, single agent
  RI (resistance index): 1.19
HeLa/DDP cells; Homo sapiens, cisplatin-resistant HeLa/DDP cells, single agent, 48 h, read-out: 48h IC50 HeLa/DDP
  IC50: 7.74 ± 0.36 µM
HeLa cells [2]; 2 μM
  proapoptotic rate: 13.4%
HeLa cells [2]; 4 μM
  proapoptotic rate: 20.7%
HeLa cells [2]; 6 μM
  proapoptotic rate: 34.6%
HeLa cells [3]; 2 μM
  number of migrating cells: 372
HeLa cells [3]; 4 μM
  number of migrating cells: 132
HeLa cells [3]; 6 μM
  number of migrating cells: 71
p-VEGFR-2 (Y1175)
  p-VEGFR-2 (Y1175) in HeLa cells (Western blot): effective downregulation
p-AKT (Ser473)
  p-AKT (Ser473) in HeLa cells (Western blot): effective downregulation
Bcl-2
  expression of Bcl-2 (Western blot): significantly downregulating the expression of Bcl-2
P-gp
  P-gp expression in HeLa/DDP cells (Western blot): did not exhibit a significant variance in P-gp expression
p-VEGFR-2
  phosphorylation of VEGFR-2 in HeLa/DDP cells (Western blot): noteworthy ability to impede the phosphorylation of VEGFR-2
